Where a name gives a salt, the structure may show the parent alone.
Legend:
Cdk2/cyclin A = Cdk2/cyclin A (Homo sapiens, UniProt P24941); test: Assay for inhibition of Cdk2/Cyclin A (32P incorporation into retinoblastoma protein, filter plate); format: biochemical
Protocol: (§1) To determine the inhibitory potency and selectivity of compounds of the present invention against Cdk4 and related kinases, compounds were evaluated in standard assays routinely used to measure inhibition of cyclin-dependent kinase enzymes and other protein kinases (see for example D. W. Fry et al., J. Biol. Chem. 2001, 276, 16617-16623). The assays were carried out as described below.
Assay for Inhibition of Cdk2/Cyclin A
Cdk2 enzyme assays for IC50 determinations and kinetic evaluation are performed as follows. 96-well filter plates (Millipore MADVN6550) are used. The final assay volume is 0.1 mL containing buffer A (20 mM TRIS (tris[hydroxymethyl]aminomethane) (pH 7.4), 50 mM NaCl, 1 mM dithiothreitol, 10 mM MgCl2), […] containing 0.25 μCi [^32P]ATP, 20 ng Cdk2/cyclin A, 1 μg retinoblastoma protein, and the test compound at appropriate dilutions in buffer A (Buffer A alone without added test compound was employed as a control for no inhibition. Buffer A containing excess EDTA was used to determine the level of background ^32P in the absence of enzyme activity). All components except the ATP are added to the wells, and the plate is placed on a plate mixer for 2 minutes. The reaction is initiated by addition of [^32P]ATP, and the plate is incubated at 25° C. for 15 minutes. The reaction is terminated by addition of 0.1 mL 20% TCA. The plate is kept at 4° C. for at least 1 hour to allow the substrate to precipitate. The wells are then washed five times with 0.2 mL 10% TCA, and ^32P incorporation is determined with a beta plate counter (Wallac Inc., Gaithersburg, Md.). The IC50 of the test compound was determined using the median effect method (Chou, T-C and Talalay, P. Applications of the median effect principle for the assessment of low-dose risk of carcinogens and for the quantitation of synergism and antagonism of chemotherapeutic agents. In: New Avenues in Developmental Cancer Chemotherapy (Eds. Harrap, K. T. and Connors, T. A.), pp. 37-64. Academic Press, New York, 1987).

Cdk4/Cyclin D = Cdk4/Cyclin D (Homo sapiens, UniProt P11802); test: Assay for inhibition of Cdk4/Cyclin D (32P incorporation into retinoblastoma protein, filter plate); format: biochemical
Chain of Cdk4/Cyclin D (P11802 whole entry, species assumed): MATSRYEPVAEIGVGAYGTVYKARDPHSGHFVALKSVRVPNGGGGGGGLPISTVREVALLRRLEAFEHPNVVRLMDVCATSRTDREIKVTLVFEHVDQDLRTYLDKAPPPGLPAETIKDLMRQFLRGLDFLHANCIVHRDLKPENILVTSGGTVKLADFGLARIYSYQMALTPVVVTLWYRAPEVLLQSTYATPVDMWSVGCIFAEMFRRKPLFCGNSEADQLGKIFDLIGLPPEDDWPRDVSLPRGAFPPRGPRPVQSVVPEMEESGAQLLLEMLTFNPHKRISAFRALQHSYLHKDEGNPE
Chain of Cdk4/Cyclin D (P24385 whole entry partner, species assumed): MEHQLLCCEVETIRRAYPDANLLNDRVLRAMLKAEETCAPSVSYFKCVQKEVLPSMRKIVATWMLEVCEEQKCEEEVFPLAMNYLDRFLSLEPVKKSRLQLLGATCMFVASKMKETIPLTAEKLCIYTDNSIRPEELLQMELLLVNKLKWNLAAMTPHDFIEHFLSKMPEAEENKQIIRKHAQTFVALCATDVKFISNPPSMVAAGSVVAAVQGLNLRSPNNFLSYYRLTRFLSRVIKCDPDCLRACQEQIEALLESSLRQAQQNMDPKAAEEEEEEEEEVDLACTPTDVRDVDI
Protocol: as §1
Assay for Inhibition of Cdk4/Cyclin D
The Cdk4 enzyme assay for IC50 determination and kinetic evaluation is performed as follows. 96-well filter plates (Millipore MADVN6550) are used. The total volume is 0.1 mL containing buffer A (20 mM TRIS (tris[hydroxymethyl]aminomethane) (pH 7.4), 50 mM NaCl, 1 mM dithiothreitol, 10 mM MgCl2), 25 [[…] ATP containing 0.25 μCi [^32P]ATP, 20 ng Cdk4, 1 μg retinoblastoma protein and the test compound at appropriate dilutions in buffer A. Buffer A alone without added test compound was employed as a control for no inhibition. Buffer A containing excess EDTA was used to determine the level of background ^32P in the absence of enzyme activity. All components except the ATP are added to the wells, and the plate is placed on a plate mixer for 2 minutes. The reaction is started by adding [^32P]ATP, and the plate is incubated at 25° C. for 15 minutes. The reaction is terminated by addition of 0.1 mL 20% trichloroacetic acid (TCA). The plate is kept at 4° C. for at least 1 hour to allow the substrate to precipitate. The wells are then washed five times with 0.2 mL 10% TCA, and ^32P incorporation is determined with a beta plate counter (Wallac Inc., Gaithersburg, Md.). The IC50 of the test compound was determined using the median effect method (Chou, T-C and Talalay, P. Applications of the median effect principle for the assessment of low-dose risk of carcinogens and for the quantitation of synergism and antagonism of chemotherapeutic agents. In: New Avenues in Developmental Cancer Chemotherapy (Eds. Harrap, K. T. and Connors, T. A.), pp. 37-64. Academic Press, New York, 1987).

neointima formation = settings: in rats; cited from earlier work

Row | Compound | melting point | IC50 (Cdk2/cyclin A) [nM] | IC50 (Cdk4/Cyclin D) [nM] | inhibition of neointima formation (neointima formation)
1 | CCOC(=O)c1cnc(Nc2ccc(N3CCNCC3)cn2)nc1NC1CCCC1 (as salt: hydrochloride) | 180 °C | – | – | –
2 | Cc1nc2cnc(Nc3ccc(N4CCNCC4)cc3)nc2n(C2CCCC2)c1=O [8′, reference compound] | – | 913 | 14 | –
3 | CCc1nc2cnc(Nc3ccc(N4CCNCC4)cc3)nc2n(C2CCCC2)c1=O [10′, reference compound] | – | 4120 | 28 | –
4 | COc1ccc(CNc2nc(N(CCO)CCO)nc3c2ncn3C(C)C)cc1 [CVT-313] | – | – | – | greater than 80%
5 | Cc1nc2cnc(Nc3ccc(N4CCNCC4)cn3)nc2n(C2CCCC2)c1=O [Example 8, 8-Cyclopentyl-6-methyl-2-(5-piperazin-1-yl-pyridin-2-ylamino)-8H-pteridin-7-one] | 221 to 223 °C | > 5000 | 510 | –
6 | CCc1nc2cnc(Nc3ccc(N4CCNCC4)cn3)nc2n(C2CCCC2)c1=O [Example 10, 8-Cyclopentyl-6-ethyl-2-(5-piperazin-1-yl-pyridin-2-ylamino)8H-pteridin-7-one] | 203 to 208 °C (dec.) | > 5000 | 335 | –
7 | COc1ccc2cnc(Nc3ccc(N4CCNCC4)cn3)nc2c1C1CCCC1 [Example 13, (8-Cyclopentyl-7-methoxy-quinazolin-2-yl)-(5-piperazin-1-yl-pyridin-2-yl)-amine] | > 200 °C | 1700 | 4 | –
8 | CNc1nc(Nc2ccc(N3CCOCC3)cc2)nc(NC2CCCC2)n1 [Example 14D, N-Cyclopentyl-N′-methyl-N″-(4-morpholin-4-yl-phenyl)-[1,3,5]triazine-2,4,6-triamine] | 218 to 219 °C | – | – | –
9 | Clc1nc(Nc2ccc(N3CCOCC3)nc2)nc(NC2CCCC2)n1 [Example 14E, 6-Chloro-N-cyclopentyl-N′-(6-morpholin-4-yl-pyridin-3-yl)-[1,3,5]triazine-2,4-diamine] | 218 to 219 °C | – | – | –
10 | O=C1N(Cc2ccccc2)Cc2cnc(Nc3ccc(N4CCCCC4)cn3)nc2N1C1CCCC1 [Example 15, 3-Benzyl-1-cyclopentyl-7-(3,4,5,6-tetrahydro-2H-[1,3′]bipyridinyl-6′-ylamino)-3,4-dihydro-1H-pyrimido[4,5-d]pyrimidin-2-one] | 194 to 196 °C | – | – | –

From US20040236084A1, “2-Aminopyridine substituted heterocycles” (Pfizer Inc, priority 2003, published 2004)
